Laboratory results from patent US20180291043A1, “BENZOCYCLOOCTENE-BASED AND INDENE-BASED ANTICANCER AGENTS” (BAYLOR UNIVERSITY, priority 2016, published 2018).
Entries after “also recorded” stand apart in the source; their conditions may differ. Like-named read-outs stand apart in the source and are kept apart here.

Tests used:
NCI-H460 [1] = assay: SRB assay, growth inhibition, NCI-H460; format: cell-based, human; settings: 48 h treatment, average of n ≥ 3
Description: (§1) Inhibition of growth of human cancer cells was assessed using the sulforhodamine B assay (SRB), as described in Monks et al., 1991. Cancer cell lines (DU-145, SK-OV-3, and NCI-H460) were plated at 7500-8000 cells/well into 96-well plates using DMEM supplemented with 5% fetal bovine serum/1% gentamicin sulfate and incubated for 24 h at 37° C. in a humidified incubator. Compound serial dilutions were then added. After 48 h treatment, the cells were fixed with trichloroacetic acid (10% final concentration), washed, dried, stained with sulforhodamine B dye (Acid red 52), washed to remove excess dye, and dried. SRB dye was solubilized, and absorbances were measured at wavelength 540 nm and normalized to values at wavelength 630 nm using an automated Biotek plate reader.

[2] = test system: MCF7-luc-GFP-mCherry breast tumor; assay: Histological assessment of tumor necrosis (H&E); format: in vivo, SCID mice; settings: 120 mg/kg, 48 h post treatment
Description: Following the 48 h BLI data acquisition, the tumors were excised, bisected and fixed in 4% paraformaldehyde solution. Tumor tissue was processed for paraffin embedding, sectioned and stained by routine methods. H&E staining was performed on one cross section from each tumor. Whole mount high resolution microscopy was obtained using a Zeiss Axioscan Z1 digital slide scanner. […] Thus, analogue 24 may be a therapeutically useful VDA.

DU-145 [3] = assay: SRB assay, growth inhibition, DU-145; format: cell-based, human; settings: 48 h treatment, average of n ≥ 3
Description: as §1

SK-OV-3 [4] = assay: SRB assay, growth inhibition, SK-OV-3; format: cell-based, human; settings: 48 h treatment, average of n ≥ 3
Description: as §1

[5] = test system: purified bovine brain tubulin; settings: Data from Pettit et al., 2000; read-out: Inhibition of tubulin polymerization IC50 (μM) ± SD; cited from earlier work
[6] = test system: MCF7-luc-GFP-mCherry breast tumor; assay: Bioluminescence imaging (BLI) of vascular disruption in tumor-bearing mice; format: in vivo, SCID mice; settings: for reduction in bioluminescence (decrease compared to baseline or saline control): single dose 120 mg/kg ip, 4 h after compound injection, p<0.05
Description: Human breast cancer cells, MCF7-luc-GFP-mCherry (ATCC), were transfected sequentially with a lentivirus containing firefly luciferase reporter, GFP and mCherry reporter genes, as described in Liu et al., 2012. Highly expressing stable clones were isolated. Induction of tumors was carried out by injecting 10^6 cells mixed with 50% Matrigel™ (BD Biosciences, San Jose, Calif.) into the right upper ventral mammary fat pads of female SCID-NOD mice (UTSW breeding colony). Tumors were allowed to grow to a size of 10-12 mm in diameter, determined by calipers, before selection for BLI. All animal procedures were approved by the University of Texas Southwestern Medical Center Institutional Animal Care and Use Committee.
Bioluminescence imaging was carried out as described in Liu et al., 2012. Briefly, anesthetized, tumor bearing mice (O2, 2% isoflurane, Henry Schein Inc., Melville, N.Y.) were injected subcutaneously in the fore-back neck region with 80 μL of a solution of luciferase substrate, D-luciferin (sodium salt, 120 mg/kg, in saline, Gold Biotechnology, St. Louis, Mo.). Mice were maintained under anesthesia (2% isoflurane in oxygen, 1 dm^3/min), while baseline bioluminescence imaging was performed using a Caliper Xenogen IVIS® Spectrum (Perkin-Elmer, Alameda, Calif.). A series of BLI images was collected over 35 min using the following settings: auto exposure time, f-stop=2, Field of view=D, binning=4 (medium). Light intensity-time curves obtained from these images were analyzed using Living Image® software and light emission compared based on area under the light emission curve. Mice were injected intraperitoneally with either 120 μL of saline (vehicle), CA4P (provided by Mateon Therapeutics, Inc.; 120 mg/kg in saline as used in Mason et al., 2011 or analogue 24 (120 mg/kg) in saline immediately after baseline BLI. Bioluminescence imaging was repeated, with new luciferin injections 4, 24, and 48 h later.
Bioluminescence imaging (BLI) is a highly valuable modality with diverse applications in a wide range of biological models and systems. BLI is a particularly useful tool for assessing and quantifying in vivo blood flow reduction following treatment with a VDA. In the current study MCF7 human breast cancer cells, which had been previously transfected stably to express the enzyme luciferase, as well as two fluorescent proteins, as designated by MCF7-luc-GFP-mCherry were implanted in SCID mice. Since the luciferase substrate luciferin can be delivered to the tumor via the blood stream, damage to the vessels by a VDA can be quantified by measurement of reduced bioluminescence upon injection of luciferin. […]

DU-145 [7] = settings: Data from Devkota et. al., 2016; read-out: GI50 (μM) SRB assay DU-145; cited from earlier work
NCI-H460 [8] = settings: Data from Devkota et. al., 2016; read-out: GI50 (μM) SRB assay NCI-H460; cited from earlier work
tubulin = assay: Colchicine binding assay (inhibition of [3H]colchicine binding to tubulin)
Description: Inhibition of [^3H]colchicine binding to tubulin was measured using reaction mixtures (100 μL each) containing 1.0 μM tubulin, 5.0 μM [^3H]colchicine (from Perkin-Elmer), 5% (v/v) dimethyl sulfoxide, […], and components that stabilize the colchicine binding activity of tubulin (Hamel et al., 1981) (1.0 M monosodium glutamate [adjusted to pH 6.6 with HCl in a 2.0 M stock solution], 0.5 mg/mL bovine serum albumin, 0.1 M glucose-1-phosphate, 1.0 mM MgCl2, and 1.0 mM GTP). […] Reactions were stopped with 2.0 mL of ice-cold water, and the reaction mixtures were placed on ice. Each sample was poured onto a stack of two DEAE-cellulose filters (from Whatman), followed by 6 mL of ice-cold water. The samples were aspirated under reduced vacuum. The filters were washed three times with 2 mL water and placed into vials containing 5 mL of Biosafe II scintillation cocktail. Samples were counted 18 h later in a Beckman scintillation counter. Samples with inhibitors were compared to samples with no inhibitor, and percent inhibition was determined. All samples were corrected for the amount of radiolabel bound to the filters in the absence of tubulin.

SK-OV-3 [9] = settings: Data from Devkota et. al., 2016; read-out: GI50 (μM) SRB assay SK-OV-3; cited from earlier work
[10] = test system: purified bovine brain tubulin; assay: Inhibition of tubulin polymerization (tubulin assembly); format: biochemical; settings: 10 μM tubulin, extent of assembly after 20 min at 30° C.; read-out: Inhibition of tubulin polymerization IC50 (μM) ± SD
Description: Inhibition of Tubulin Polymerization
Tubulin assembly experiments were performed in 0.25 mL reaction mixtures (final volume) (Hamel, 2003). The mixtures contained 1 mg/mL (10 μM) purified bovine brain tubulin, 0.8 M monosodium glutamate (pH 6.6), 4% (v/v) dimethyl sulfoxide, 0.4 mM GTP, and different compound concentrations. All reaction components except GTP were preincubated for 15 min at 30° C. in 0.24 mL. The mixtures were cooled to 0° C., and 10 μL of 10 mM GTP were added. Reaction mixtures were transferred to cuvettes held at 0° C. in Beckman DU-7400 and DU-7500 spectrophotometers equipped with electronic temperature controllers. The temperature was jumped to 30° C., taking about 30 s, and polymerization was followed at 350 nm for 20 min.

[11] = test system: human cancer cell lines (DU-145, SK-OV-3, NCI-H460); assay: SRB cytotoxicity, statements over the three human cancer cell lines; format: cell-based; settings: all three human cancer cell lines
Description: as §1

[12] = Limited dose escalation study (tolerability); format: in vivo, non-tumor bearing SCID mice; settings: dose of 120 mg/kg; dose escalation 60-150 mg/kg; MTD not yet determined
[13] = inhibitor at 5 μM, 1.0 μM tubulin, 5.0 μM [3H]colchicine

SMILES	GI50 (NCI-H460 [1]; Homo sapiens, NCI-H460)	IC50 [10]	GI50 (DU-145 [3]; Homo sapiens, DU-145)	GI50 (SK-OV-3 [4]; Homo sapiens, SK-OV-3)	% Inhibition of colchicine binding ± SD (tubulin; [13])	further results
COc1ccc(/C=C\c2cc(OC)c(OC)c(OC)c2)cc1OP(=O)(O)O [CA4P, Combretastatin A-4P, reference compound]	–	–	–	–	–	GI50 (NCI-H460 [1]): 2.82 nM; tumor necrosis (H&E staining) compared with saline control [2]: much more extensive necrosis; GI50 (DU-145 [3]): 3.36 nM; GI50 (SK-OV-3 [4]): 1.9 nM; IC50 [5]: > 20 µM; reduction in bioluminescence (decrease compared to baseline or saline control) [6]: approximately 80%
COc1ccc(/C=C\c2cc(OC)c(OC)c(OC)c2)cc1O [CA4]	–	–	–	–	–	GI50 (DU-145 [7]): 0.00602 µM; GI50 (NCI-H460 [8]): 0.005 µM; IC50 [5]: […]; % Inhibition of colchicine binding ± SD (tubulin; inhibitor at 1 μM): […]; GI50 (SK-OV-3 [9]): 0.00506 µM
COc1cc(C2=CCCCCc3c2ccc(OC)c3OC)cc(OC)c1OC [Compound 20, 1,2-Dimethoxy-5-(3′,4′,5′-trimethoxyphenyl)-benzocyclooct-5-ene]	395 nM	4.5 ± 0.5 µM	448 nM	512 nM	31 ± 0.6 (5 μM) %	–
COc1ccc2c(c1)CCCCC=C2c1cc(OC)c(OC)c(OC)c1 [Compound 21, 2-Methoxy-5-(3′,4′,5′-trimethoxyphenyl)-benzocyclooct-5-ene]	431 nM	3 ± 0.1 µM	570 nM	400 nM	29 ± 5 (5 μM) %	–
COc1ccc2c(c1O)CCCCC=C2c1cc(OC)c(OC)c(OC)c1 [Compound 23, 1-Hydroxy-2-methoxy-5-(3′,4′,5′-trimethoxyphenyl)-benzocyclooct-5-ene]	107 nM	1.2 µM	105 nM	81.1 nM	78%	GI50 values / cytotoxicity range in words [11]: submicromolar
COc1cc(C2=CCCCCc3c2ccc(OC)c3OP(=O)([O-])[O-])cc(OC)c1OC.[Na+].[Na+] [Compound 24, Sodium 2-methoxy-5-(3′,4′,5′-trimethoxyphenyl)-benzocyclooct-5-en-1-yl phosphate]	26 nM	> 20 µM	41 nM	36.6 nM	–	tumor necrosis (H&E staining) compared with saline control [2]: much more extensive necrosis; GI50 values / cytotoxicity range in words [11]: submicromolar; tolerability of dose [12]: tolerated; bioluminescence intensity at 24 and 48 h ([6]; 120 mg/kg ip, 24 and 48 h post administration, phosphate): the effect continued at both 24 and 48 h; also recorded: remained significantly below baseline values; vascular shutdown / reduction of blood flow as evidenced by BLI ([6]; 120 mg/kg, 4 h post administration, phosphate): significant vascular shutdown; also recorded: significant in vivo reduction of blood flow; reduction in bioluminescence (decrease compared to baseline or saline control) [6]: approximately 80%
COc1cc(C2=CCc3c2ccc(OC)c3OC)cc(OC)c1OC [Compound 28, 6,7-Dimethoxy-3-(3′,4′,5′-trimethoxyphenyl)-1H-indene]	42200 nM	> 20 µM	34600 nM	9460 nM	–	–
COc1ccc2c(c1)CC=C2c1cc(OC)c(OC)c(OC)c1 [Compound 29, 6-Methoxy-3-(3′,4′,5′-trimethoxyphenyl)-1H-indene]	4020 nM	> 20 µM	4660 nM	6150 nM	–	–
COc1ccc2c(c1O)CC=C2c1cc(OC)c(OC)c(OC)c1 [Compound 31, 6-Methoxy-3-(3′,4′,5′-trimethoxyphenyl)-1H-inden-7-ol]	388 nM	11 µM	362 nM	704 nM	17 ± 5 (5 μM) %	–
COc1cc(C2=CCc3c2ccc(OC)c3OP(=O)(O)O)cc(OC)c1OC [Compound 32, Sodium 6-methoxy-3-(3′,4′,5′-trimethoxyphenyl)-1H-inden-7-yl phosphate]	1500 nM	> 20 µM	3340 nM	334 nM	–	–
COc1ccc2c(c1O)CCCC=C2c1cc(OC)c(OC)c(OC)c1 [KGP18, reference compound]	–	1.4 µM	–	–	–	GI50 (NCI-H460 [1]): 0.0418 nM; GI50 (DU-145 [3]): 0.0249 nM; GI50 values / cytotoxicity range in words [11]: subnanomolar; GI50 values / cytotoxicity range in words ([11]; listed as KPG18): sub-nM; GI50 (SK-OV-3 [4]): 0.0543 nM
